Our source for the inhibition, melting point and IC50 values is patent US7291732B2, “Isomeric fused pyrrolocarbazoles and isoindolones” (Cephalon, Inc., priority 1999, dated 2007).

The target of data set [1] is T1, baculovirus-expressed PDGFβ receptor kinase domain (Homo sapiens, UniProt P09619).
T1 construct: baculovirus-expressed PDGFβ receptor kinase domain; made in house
The data set is described as follows: PDGF receptor kinase activity inhibition, ELISA assay. The format is biochemical. Particulars: read-out: PDGFRβ (% inhibition @ 1 μM); 1 μM compound; 20 μM ATP; value printed in parentheses. As to the method:
Isomeric fused pyrrolocarbazole and isoindolone compounds were examined for their inhibitory effects on the kinase activity of baculovirus-expressed PDGFβ receptor kinase domain using the trkA kinase ELISA described above. Assays were performed in substrate (PLC-γ/GST)-coated 96-well microtiter plates. Each 100-μl reaction mixture contained 50 mM HEPES, pH 7.4, 20 μM ATP, 10 mM MnCl2, 0.1% BSA, 2% DMSO, and various concentrations of inhibitor. The reaction was initiated by addition of prephosphorylated recombinant human enzyme (10 ng/ml PDGFβ) and allowed to proceed for 15 minutes at 37° C. The prephosphorylated enzyme was prepared prior to use by incubation of the kinase in buffer containing 20 μM ATP and 10 mM MnCl2 for 1 hour at 4 C. Detection of phosphorylated product was done by adding horseradish peroxidase (HRP)-conjugated anti-phosphotyrosine antibody (UBI). The HRP substrate solution containing 3,3′-5,5′-tetramethylbenzidine and hydrogen peroxide was later added and the plates were incubated for 10 minutes at room temperature. The reaction was quenched with acid and the resulting absorbance was read at 450 nm using a Microplate Bio-kinetics Reader (Bio-Tek Instrument EL 312e). Inhibition data were analyzed using the sigmoidal dose-response (variable slope) equation in GraphPad Prism.

Data set [2] concerns the target T2, baculovirus-expressed human trkA cytoplasmic domain (Homo sapiens, UniProt P04629).
T2 construct: baculovirus-expressed human trkA cytoplasmic domain; made in house
The experiment in a line: trkA tyrosine kinase activity inhibition, ELISA-based assay. The format is biochemical. The following applies: read-out: trkA (% inhibition @ 300 nM); 300 nM compound; 40 μM ATP; value printed in parentheses. As to the method:
Selected isomeric fused pyrrolocarbazole and isoindolone compounds were tested for their ability to inhibit the kinase activity of baculovirus-expressed human trkA cytoplasmic domain using an ELISA-based assay as previously described (Angeles et al, Anal. Biochem. 236: 49-55, 1996). Briefly, the 96-well microtiter plate was coated with substrate solution (recombinant human phospholipase C-γl/glutathione S-transferase fusion protein (Rotin et al., EMBO J., II: 559-567, 1992). Inhibition studies were performed in 100 μl assay mixtures containing 50 mM Hepes, pH 7.4, 40 μM ATP, 10 mM MnCl2, 0.1% BSA; 2% DMSO, and various concentrations of inhibitor. The reaction was initiated by addition of trkA kinase and allowed to proceed for 15 minutes at 37° C. An antibody to phosphotyrosine (UBI) was then added, followed by a secondary enzyme-conjugated antibody, alkaline phosphatase-labelled goat anti-mouse IgG (Bio-Rad). The activity of the bound enzyme was measured via an amplified detection system (Gibco-BRL). Inhibition data were analyzed using the sigmoidal dose-response (variable slope) equation in GraphPad Prism.

The target in data set [3] is T3, baculovirus-expressed VEGF receptor (human flk-1, KDR, VEGFR2) kinase domain (Homo sapiens, UniProt P35968).
T3 construct: VEGF receptor (human flk-1, KDR, VEGFR2) kinase domain; made in house
The experiment in a line: VEGF receptor kinase activity inhibition, ELISA assay. The format is biochemical. Particulars: 40 μM ATP; value printed without parentheses; read-out: VEGFR kinase IC50. As to the method:
Isomeric fused pyrrolocarbazole and isoindolone compounds were examined for their inhibitory effects on the kinase activity of baculovirus-expressed VEGF receptor (human flk-1, KDR, VEGFR2) kinase domain using the procedure described for the trkA kinase ELISA assay described above. The kinase reaction mixture, consisting of 50 mM Hepes, pH 7.4, 40 μM ATP, 10 mM MnCl2, 0.1% BSA, 2% DMSO, and various concentrations of inhibitor, was transferred to PLC-γ/GST-coated plates. VEGFR kinase was added and the reaction was allowed to proceed for 15 min at 37° C. Detection of phosphorylated product was accomplished by addition of anti-phosphotyrosine antibody (UBI). A secondary enzyme-conjugated antibody was delivered to capture the antibody-phosphorylated PLC-γ/GST complex. The activity of the bound enzyme was measured via an amplified detection system (Gibco-BRL). Inhibition data were analyzed using the sigmoidal dose-response (variable slope) equation in GraphPad Prism Results are summarized in Table 6.

The structures appear in SMILES notation. Where only a bound is given, the exact number is not on record here.

T2 sequence (P04629 440-796 limits assumed): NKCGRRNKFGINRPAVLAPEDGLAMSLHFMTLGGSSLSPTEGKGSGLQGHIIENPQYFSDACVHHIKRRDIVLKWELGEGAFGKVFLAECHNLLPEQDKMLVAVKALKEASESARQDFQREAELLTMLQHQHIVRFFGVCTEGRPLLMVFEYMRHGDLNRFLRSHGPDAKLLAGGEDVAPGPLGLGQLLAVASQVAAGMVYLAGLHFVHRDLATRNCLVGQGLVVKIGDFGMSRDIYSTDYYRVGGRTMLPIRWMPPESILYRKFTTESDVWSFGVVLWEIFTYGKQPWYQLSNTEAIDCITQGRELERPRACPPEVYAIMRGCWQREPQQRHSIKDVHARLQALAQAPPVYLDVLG
T3 sequence (P35968 834-1162 limits assumed): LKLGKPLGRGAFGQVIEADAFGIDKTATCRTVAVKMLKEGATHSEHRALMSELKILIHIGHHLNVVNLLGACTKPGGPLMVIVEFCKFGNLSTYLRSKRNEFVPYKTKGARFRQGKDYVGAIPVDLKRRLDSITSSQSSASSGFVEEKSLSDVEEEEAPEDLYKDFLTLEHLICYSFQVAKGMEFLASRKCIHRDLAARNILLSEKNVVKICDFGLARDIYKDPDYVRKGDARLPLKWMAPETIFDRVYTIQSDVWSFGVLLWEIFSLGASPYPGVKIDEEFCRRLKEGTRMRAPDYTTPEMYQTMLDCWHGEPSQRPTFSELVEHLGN
T1 sequence (P09619 600-962 limits assumed): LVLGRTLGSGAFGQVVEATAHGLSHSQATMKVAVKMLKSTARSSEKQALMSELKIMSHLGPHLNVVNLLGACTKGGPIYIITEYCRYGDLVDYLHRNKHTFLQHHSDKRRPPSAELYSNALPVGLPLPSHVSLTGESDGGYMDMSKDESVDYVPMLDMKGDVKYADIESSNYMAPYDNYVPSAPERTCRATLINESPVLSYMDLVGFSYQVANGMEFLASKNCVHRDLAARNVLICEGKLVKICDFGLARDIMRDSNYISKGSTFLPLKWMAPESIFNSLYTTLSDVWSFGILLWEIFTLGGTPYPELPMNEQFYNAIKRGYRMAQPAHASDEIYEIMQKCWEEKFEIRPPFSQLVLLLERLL

Consider `O=C1NC(=O)c2c1c1c(c3[nH]c4ccc(Br)cc4c23)-c2ccccc2CC1` [IV-9], for which the melting point was above 300 °C. Further, the inhibition at 1 µM in data set [1] worked out at 20%. In addition, the inhibition at 0.3 µM in data set [2] was 6%. The IC50 in data set [3] amounted to 2.86 µM.
